Laboratory results as given in patent publication US20090192192A1, “INHIBITORS OF BIOFILM FORMATION OF GRAM-POSITIVE AND GRAM-NEGATIVE BACTERIA” (priority 2007, published 2009).

Tests used:
Assay type in all cases: cell-based
[1] = system: Staphylococcus aureus U of C#18 (MRSA); assay: MBEC assay, biofilm formation of S. aureus U of C #18 (MRSA); details: read-out: S. aureus U of C #18 (MRSA) log R (log reduction); for log reduction at 10 µM: compound concentration 10 μM; for log reduction at 100 µM: compound concentration 100 μM
Experimental: (§1) The compound to be tested was dissolved in DMSO to obtain a concentration that was 100 times that of the final concentration required (1 mM for the 10 μM assay and 10 mM for the 100 μM assay). 1.5 μL of the above solution was placed into each well of a 96 well plate (final volume in each well=150 μL, final DMSO concentration of 1% (v/v)).
(§2) To grow the organism and form a biofilm, a cryogenic stock of the test organism (at −70° C.) was used. A first sub-culture was streaked out onto TSA (tryptic soy agar), upon which the plate was incubated at 35±2° C. for 24 hours and stored wrapped in parafilm at 4° C. afterwards. From this first sub-culture, a second sub-culture was streaked out onto TSA. The plate was incubated at 35±2° C. for 24 hours. The second sub-culture was used within 24 hours starting from the time it was first removed from incubation. Using the second sub-culture an inoculum in 3 mL sterile water that matches a 0.5 McFarland Standard (1.5×10^8 cells per mL) was created in a glass test tube using a sterile cotton swab. 2.2 mL of this solution was diluted in 22 mL 100% TSB (tryptic soy broth) medium to a cell density of approximately 6.0×10^5 cells per mL. The diluted organism was inverted 3-5 times to achieve uniform mixing of the organism. One sample (100 μl) of the diluted organism was used for an inoculum check by serially diluting and spot plating on TSA.
(§3) To prepare a challenge plate, […] of the diluted organism was added to each well of a 96 well plate except the sterility control wells. The test compounds were added to the wells to make up final concentrations of 10 μM and […] (1.5 μL/well) in the designated location in the test plate. 128.5 μL of 100% universal neutralizer (1% Tween 80 in Cation Adjusted Mueller Hinton Broth, CAMHB) was placed in each of the wells. 130 μL of media was added to the growth control wells. 128.5 μL of media+1.5 μL of DMSO were added to a second set of growth control wells. 150 μL of media was added to the sterility controls. Each sample was run in triplicate. The plate was covered by a lid with a peg per well and wrapped in parafilm and placed on a shaker in a humidified incubator (GeneVac) at 35±+2° C. for 24 hours set at 110 rpm.
(§4) Rinse plate(s) of 0.9% saline (200 μL per well) were prepared in a sterile 96 well microtitre plate. Lid-associated pegs were rinsed in 0.9% saline for approximately 1-2 minutes. The peg lid was transferred to the recovery media (1.0% Tween 80 in CAMHB) then sonicated for 30 minutes to dislodge surviving biofilm. Following sonication, 100 μL from each well of the 96 well plate was placed into the first 12 wells of the first row of a 96 well microtiter plate. 180 μl of 0.9% sterile saline was placed in the remaining rows. A serial dilution (10^0-10^7) was prepared by moving 20 μl down each of the 8 rows. 20 μl from each well was removed and spot plated on a prepared TSA. In the remaining recovery plate, 100 μl of fresh growth media (1.0% Tween 80 in CAMHB) was placed in each well to replace the amount removed. The recovery plate was covered with a regular lid and incubated at 35±2° C. for 24 hours and read visually to confirm antimicrobial activity of the test compounds.
(§5) The compounds of the present disclosure have been tested regarding their efficiency to inhibit biofilm formation of Staphylococcus aureus U of C#18 (MRSA), Staphylococcus aureus 456 (MRSA), Staphylococcus epidermidis RP62A, and Pseudomonas aeruginosa PAO1.

[2] = system: Staphylococcus aureus 456 (MRSA); assay: MBEC assay, biofilm formation of S. aureus 456 (MRSA); details: read-out: S. aureus 456 (MRSA) log R (log reduction); for log reduction at 10 µM: compound concentration 10 μM; for log reduction at 100 µM: compound concentration 100 μM
Experimental: as §1, §2, §3, §4, §5

[3] = system: Staphylococcus epidermidis RP62A; assay: MBEC assay, biofilm formation of S. epidermidis RP62A; details: read-out: S. epidermidis RP62A log R (log reduction); for log reduction at 10 µM: compound concentration 10 μM; for log reduction at 100 µM: compound concentration 100 μM
Experimental: as §1, §2, §3, §4, §5

[4] = system: Pseudomonas aeruginosa PAO1; assay: MBEC assay, biofilm formation of P. aeruginosa PAO1; details: for IC50: biofilm formation, read-out: P. aeruginosa PAO1 inhibitory concentration IC50; for inhibition at 100 µM: compound concentration 100 μM
How it was run: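 Peg-lid biofilms were grown 24 h at 35±2 °C, 110 rpm, from inoculum diluted to ~6.0×10^5 cells per mL in TSB, with compound at 10 μM or 100 μM final (1% DMSO) in 1% Tween 80/CAMHB. Pegs were rinsed, then sonicated 30 min into recovery medium; survivors were spot-plated, and recovery plates were read visually after 24 h; triplicates.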

[5] = system: Staphylococcus aureus 398 (MRSA); assay: MBEC assay, biofilm formation of S. aureus 398 (MRSA)
Experimental: as §1
as §2, with “2.2 mL of this solution was diluted in 22 mL 100% TSB (tryptic soy broth) medium to a cell density of approximately 6.0×10^5 cells per mL. The diluted organism was inverted 3-5 times to achieve uniform mixing of the organism. One sample (100 μl) of the diluted organism was used for an inoculum check by serially diluting and spot plating on TSA.” left out
Rinse plate(s) of 0.9% saline (200 μL per well) were prepared in a sterile 96 well microtitre plate. […] The recovery plate was covered with a regular lid and incubated at 35±2° C. for 24 hours and read visually to confirm antimicrobial activity of the test compounds. […]

| SMILES | log reduction at 10 µM [1] | log reduction at 100 µM [1] | log reduction at 10 µM [2] | log reduction at 100 µM [2] | log reduction at 10 µM [3] | log reduction at 100 µM [3] | IC50 [4] [µM] | S. aureus 398 (MRSA) log R (log reduction) ([5]; compound concentration 10 μM) | S. aureus 398 (MRSA) log R (log reduction) ([5]; compound concentration 100 μM) | inhibition at 100 µM [4] [%] |
| --- | --- | --- | --- | --- | --- | --- | --- | --- | --- | --- |
| CCCCCCCCCOCC(=O)Nc1ccnn1C [Example 1, N-(1-methylpyrazol-5-yl)-2-(nonyloxy)acetamide] | 0.4 | 0.77 | 0.26 | 1.18 | 0 | 0 | 27 | – | – | – |
| CCCCCCCCCCCC(=O)N1CCCC(C(=O)N(CC)CC)C1 (centres unmarked) [Example 2, 1-dodecanoyl-N,N-diethylpiperidine-3-carboxamide] | 1.56 | 5.38 | 1.75 | 5.79 | 0 | 3.5 | 12 | – | – | – |
| CCCCCCCCOCCC(=O)Nc1ccc(F)cc1C(F)(F)F [Example 3, N-(4-fluoro-2-(trifluoromethyl)phenyl)-3-(octyloxy)propanamide] | 0.11 | 0.19 | 0.19 | 0.49 | 0 | 0 | 19 | – | – | – |
| CCCCCCCCCC(=O)NC(=O)Nc1ccnn1CC [Example 4, N-(1-ethylpyrazol-5-ylcarbamoyl)decanamide] | 1.13 | 1.49 | 1.14 | 3.28 | 0 | 0.78 | 11 | – | – | – |
| CCCCCCCCOCCC(=O)N(C)c1ccc(F)cc1 [Example 5, N-(4-fluorophenyl)-N-methyl-3-(octyloxy)propanamide] | -0.21 | 1.29 | 0.54 | 1.86 | 0 | 0 | 24 | – | – | – |
| CCCCCCCCCCNC(=O)N(C)c1ccccc1 [Example 6, 3-decyl-1-methyl-1-phenylurea] | 0.72 | 1.08 | 1.61 | 2.3 | 0 | 4.45 | 9 | – | – | – |
| CCCCCCCCCCNC(=O)N(C)[C@@H](C)c1ccccc1 [Example 7, (S)-3-decyl-1-methyl-1-(1-phenylethyl)urea] | 0.84 | 1.12 | 0.53 | 1.26 | 0 | 0 | 4 | – | – | – |
| CCCCCCCCCCNC(=O)Nc1cc(C(C)(C)C)nn1C [Example 8, 1-(3-tert-butyl-1-methylpyrazol-5-yl)-3-decylurea] | 0.26 | 0.8 | 0.42 | 1.04 | 0 | 0 | 3 | – | – | – |
| CCCCCCCCCCCC(=O)Nc1cc(C(C)(C)C)nn1C [Example 9, N-(3-tert-butyl-1-methylpyrazol-5-yl)dodecanamide] | 0.42 | 0.46 | 0.65 | 1.06 | 0 | 0 | 12 | – | – | – |
| CCCCCCCCCCNC(=O)N1CCCC(C(=O)N(CC)CC)C1 (centres unmarked) [Example 10, N^1-decyl-N^3,N^3-diethylpiperidine-1,3-dicarboxamide] | 1.17 | 0.91 | – | – | 1.33 | 1.28 | – | 1.38 | 2.54 | 84 |
| CCCCCCCCCCC(=O)N1CCCC(C(=O)N(CC)CC)C1 (centres unmarked) [Example 11, N,N-diethyl-1-undecanoylpiperidine-3-carboxamide] | 0.84 | 0.88 | – | – | 0.77 | 1.48 | – | – | – | 75 |
| CCCCCCCCCCCCC(=O)N1CCCC(C(=O)N(CC)CC)C1 (centres unmarked) [Example 12, N,N-diethyl-1-tridecanoylpiperidine-3-carboxamide] | 0.08 | 1.57 | – | – | 1.42 | 2.47 | – | – | – | 85 |
